The values below are quoted from earlier work in patent US20240285564A1, “USE OF (S)-3-AMINO-4-(DIFLUOROMETHYLENYL)CYCLOPENT-1-ENE-1-CARBOXYLIC ACID FOR GASTROINTESTINAL TRACT DISORDERS AND AS AN IMMUNOMODULATORY AGENT” (Ovid Therapeutics Inc., priority 2023, published 2024).

What is called IC50 is the concentration that inhibits the measured activity by half. In general, Ki refers to a dissociation constant, usually derived from enzyme kinetics or from competition with a known ligand.

Data set [1] concerns the target alanine aminotransferase (Ala-AT).
The next data set deals with T1, OAT (Homo sapiens, UniProt P04181).
T1 sequence (P04181 36-439 limits assumed): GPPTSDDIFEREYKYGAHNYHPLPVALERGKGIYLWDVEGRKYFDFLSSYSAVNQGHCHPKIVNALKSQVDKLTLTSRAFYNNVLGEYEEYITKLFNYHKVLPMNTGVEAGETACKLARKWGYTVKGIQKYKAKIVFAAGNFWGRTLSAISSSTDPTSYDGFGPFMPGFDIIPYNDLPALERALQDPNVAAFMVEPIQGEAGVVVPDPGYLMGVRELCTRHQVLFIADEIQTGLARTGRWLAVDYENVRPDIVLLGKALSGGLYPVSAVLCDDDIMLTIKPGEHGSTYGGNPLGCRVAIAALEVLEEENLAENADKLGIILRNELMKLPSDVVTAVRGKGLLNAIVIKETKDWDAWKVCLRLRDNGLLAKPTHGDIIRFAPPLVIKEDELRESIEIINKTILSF

Data set [2] deals with aspartate aminotransferase (Asp-AT).
Setting [3] is: read-out: IC50 (reversible inhibition).

Take `N[C@H]1C=C(C(=O)O)CC1=C(F)F` [(S)-3-amino-4-(difluoromethylenyl)cyclopent-1-ene-1-carboxylic acid]: the IC50 in data set [1] (setting [3]) and in data set [2] (setting [3]) was over 4 mM in each case. In addition, the kintact on OAT is 0.025 min⁻¹. The kintact/KI at OAT was 7.6 mM⁻¹ min⁻¹. Moreover, the “times more efficient an inactivator of OAT than CPP-115” value at OAT (relative to CPP-115) is recorded as 9.0 times.
`N[C@H]1C[C@@H](C(=O)O)CC1=C(F)F` [CPP-115, (1S,3S)-3-amino+difluoromethylenyl-1-cyclopentanoic acid, reference compound]: the “inactivation or inhibition of off-target enzyme” value in data set [1] was “not to inactivate or inhibit”. On OAT, the inhibition constant Ki was 116 µM and the kintact is 0.097 min⁻¹. Besides, the “inactivation or inhibition of off-target enzyme” value in data set [2] is on record as “not to inactivate or inhibit”.
